Here are results for two compounds from US6929667B2, “Method for the fluorescent whitening of cotton” (Ciba Specialty Chemicals Corporation, priority 2000, dated 2005).

Structures are written as SMILES.

Data set [1] is described as follows: Determination of fibre affinity: Ganz whiteness of bleached cotton after exhaust treatment at 95° C. The settings on record: for Whiteness Value: Ganz whiteness, 0.2% whitener on fibre weight, exhaust method, liquor ratio 1:40, up to 95° C., measure of affinity to cotton. How it is done:
Various bleached cotton swatches are treated by the exhaust method in an aqueous bath having the following composition: • 0.2% of test fluorescent whitener (100% active substance), based on the weight of the fibre, • 0.5 ml/l Ultravon EL™, • 20 ml/l 3% aqueous sodium hydroxide solutions, • 2 ml/l 10% aqueous sodium silicate solution and • 3 ml/l 35% aqueous hydrogen peroxide solution.
The fluorescent whiteners used were compounds (102)-(104) of the present invention and a commercial product having the formula [drawing 11]
The treatment is conducted at a liquor ratio of 1:40 for 30 minutes at from 25 to 95° C., then for a further 60 minutes at 95° C. and, finally, cooled to 30° C. The swatches are removed from the treatment bath, rinsed and dried at 60° C.
Due to the high application temperature of 95° C., the tested compounds must have high affinity to cotton to provide high whiteness levels. Consequently, the whiteness values are a suitable measure of affinity, i.e. high whiteness corresponds to high affinity.
Whiteness was measured according to the method of Ganz, which is described in detail in the Ciba-Geigy Review, 1973/1 and also in the article “Whiteness Measurement”, ISCC Conference on Fluorescence and the Colorimetry of Fluorescent Materials, Williamsburg, February 1972, published in the Journal of Color and Appearance, 1, No. 5 (1972).

Data set [2] can be described thus: Determination of pH stability: appearance of 0.8 g/l solution at different pH values on storage. To be noted: 0.8 g/l in drinking water, dark, 25° C. The data set is classed as physicochemical. As to the method: (§1) The sensitivity of the test compounds (102)-(104) of the invention and of the commercial compound (103) to acidic pH values is evaluated in a bath and on the cotton fabric.
(§2) A solution containing 0.8 g/l of the test compound (as active ingredient) in drinking water (approximately 11° German hardness) is prepared and separate samples of the solution are adjusted to different pH values and stored in the dark at 25° C. The appearance of each sample is assessed immediately and also after 1, 2 and 4 hours storage.

The nature of data set [3]: Determination of pH stability: Ganz whiteness of bleached cotton padded with the stored solutions. The settings on record: liquor pick-up 65%. How it is done:
as §1, §2
Following the 4 hour appearance assessment, separate samples of bleached cotton are padded with the respective solutions (liquor pick-up 65%). The fabric samples are dried at 70° C. for 20 minutes and the whiteness values determined according to the method of Ganz.

The mark [4] stands for this setting: cotton padded with pH 3 solution after 4 hours storage.
Setting [5] is: cotton padded with pH 4 solution after 4 hours storage.
Setting [6] is: cotton padded with pH 5 solution after 4 hours storage.
Setting [7] is: cotton padded with pH 6 solution after 4 hours storage.
Setting [8] is: cotton padded with pH 7 solution after 4 hours storage.

Regarding `CC(O)CN(CC(C)O)c1nc(Nc2ccc(S(=O)(=O)CCO)cc2)nc(Nc2ccc(/C=C/c3ccc(Nc4nc(Nc5ccc(S(=O)(=O)CCO)cc5)nc(N(CC(C)O)CC(C)O)n4)cc3S(=O)(=O)[O-])c(S(=O)(=O)[O-])c2)n1.[Na+].[Na+]` (stereo not drawn) [(102)], the “Whiteness Value” in data set [1] came out at 234. Further, the “Affinity to the fibre (judged from whiteness value)” value in data set [1] (whiteness only slightly lower than that of the conventional commercial FWA) was “high affinity to the fibre”. The Appearance of solution entry was “clear” in data set [2] (1 hour, pH 4); “clear” in data set [2] (1 hour, pH 5); “clear” in data set [2] (1 hour, pH 6); “clear” in data set [2] (1 hour, pH 7); “clear” in data set [2] (2 hours, pH 4); “clear” in data set [2] (2 hours, pH 5). Also, the Appearance of solution result was “clear” in data set [2] (2 hours, pH 6); “clear” in data set [2] (2 hours, pH 7); “clear” in data set [2] (4 hours, pH 4); “clear” in data set [2] (4 hours, pH 5); “clear” in data set [2] (4 hours, pH 6); “clear” in data set [2] (4 hours, pH 7). For the same compound, the Appearance of solution result in data set [2] (Immediate, pH 4) is “clear”; in data set [2] (Immediate, pH 5) it was “clear”; in data set [2] (Immediate, pH 6) it was “clear”; in data set [2] (Immediate, pH 7), “clear”. Further, the Whiteness in data set [3] (setting [4]) is 171; in data set [3] (setting [5]) it was 192; in data set [3] (setting [6]) it was 194; in data set [3] (setting [7]), 193; in data set [3] (setting [8]) it was 193.

Regarding `O=S(=O)([O-])c1cc(Nc2nc(Nc3ccc(S(=O)(=O)CCO)cc3)nc(N(CCO)CCO)n2)ccc1/C=C/c1ccc(Nc2nc(Nc3ccc(S(=O)(=O)CCO)cc3)nc(N(CCO)CCO)n2)cc1S(=O)(=O)[O-].[Na+].[Na+]` [(103)], the “Whiteness Value” in data set [1] worked out at 224. Besides, the Appearance of solution entry was “cloudy” in data set [2] (1 hour, pH 3); “cloudy” in data set [2] (1 hour, pH 4); “clear” in data set [2] (1 hour, pH 5); “clear” in data set [2] (1 hour, pH 6); “clear” in data set [2] (1 hour, pH 7); “cloudy” in data set [2] (2 hours, pH 3). Also, the Appearance of solution result is on record as “cloudy” in data set [2] (2 hours, pH 4); “clear” in data set [2] (2 hours, pH 5); “clear” in data set [2] (2 hours, pH 6); “clear” in data set [2] (2 hours, pH 7); “cloudy” in data set [2] (4 hours, pH 3); “cloudy” in data set [2] (4 hours, pH 4). Further, the Appearance of solution entry was “clear” in data set [2] (4 hours, pH 5); “clear” in data set [2] (4 hours, pH 6); “clear” in data set [2] (4 hours, pH 7); “cloudy” in data set [2] (Immediate, pH 3); “clear” in data set [2] (Immediate, pH 5); “clear” in data set [2] (Immediate, pH 6). Besides, in data set [2] (Immediate, pH 7), the Appearance of solution result is “clear”. Moreover, the Whiteness in data set [3] (setting [4]) is 53; in data set [3] (setting [5]), 115; in data set [3] (setting [6]), 160; in data set [3] (setting [7]) it was 184; in data set [3] (setting [8]), 186.
